Reference: US20240368676A1, “KITS FOR DETECTING ONE OR MORE TARGET ANALYTES IN A SAMPLE AND METHODS OF MAKING AND USING THE SAME” (Meso Scale Technologies, LLC., priority 2020, published 2024)
Read-outs that look alike come from different tables or passages of the source.

What was measured:
rs1051730 (CHRNA3 D398N) = experiment: Lung cancer SNP panel OLA on PCR-amplified cell line DNA; conditions: PCR-amplified DNA from HIL-60 cell line
Description: (§1) The probe sequences used for each mutation are provided in Tables 42 (upstream) and 43 (downstream), below.
(§2) To test the probes for each mutation, probes from either the 1st or 2nd strand were chosen and tested against DNA extracted from a HIL-60 cell line. DNA was extracted using the Gentra Puregene Cell Kit (Qiagen Cat #158388) and 10 ng DNA was amplified using the MyTaq HS Master Mix (Bioline Cat #BIO-25045) and assay-specific PCR forward and revers primers, shown in Tables 44 and 45, respectively.
(§3) Following amplification, OLA was performed as described in Example 7 and the frequency of WT and Mutant alleles was determined.

[1] = system: rs212090 (ABCC1 c.*866T>A); experiment: as above; conditions: PCR-amplified DNA from HIL-60 cell line
Description: as §1, §2, §3

rs3842 (ABCB1 c.*193A>G) = experiment: as above; conditions: PCR-amplified DNA from HIL-60 cell line
Description: as §1, §2, §3

miR-122 [2] = experiment: miRNA detection using an RNase protection assay (chimeric DNA/RNA probe, ECL); conditions: synthetic miR-122 miRNA
Source text: An RNase protection assay can be used for miRNA quantification. In the assay, a DNA/RNA chimeric probe is used that contains an oligonucleotide tag sequence that is complementary a capture oligonucleotide sequence and a miRNA complementary sequence. The oligonucleotide tag sequence can be a single stranded DNA (ssDNA) sequence included on the 5′ end of the chimeric probe and the miRNA complementary sequence can be a single stranded RNA (ssRNA) sequence at the 3′ end of the chimeric probe, along with a terminal 3′ biotin.
Briefly, miRNA can be detected as follows: • 1). Hybridize miRNA to the chimeric probe in a thermal cycler to form a hybridization product; • 2). Block assay plate using one or more known blocking agent; • 3). Add hybridization product with formamide to the blocked assay plate under conditions in which the oligonucleotide tag sequence of the hybridization product can hybridize to the capture oligonucleotides on the assay plate. Incubate at 37° C.; • 4). Perform on-plate digestion of ssRNA with RNase A or RNase I (30° C.-37° C.) to digest the following: • a). ssRNA that has not been hybridized to the probe; • b). Probe hybridized to the plate without the complementary miRNA; and • c). […] Add Read Buffer B to assay plate and measure ECL signal generation with MSD Imager; and • 7). Compare the results against a calibration curve for quantification. […]

miR-122 [3] = conditions: reported by Rissin et al., PLOS One (2017); cited from earlier work
[4] = system: rs8034191 (LOC123688 or HYKK c.337+256T>C); experiment: Lung cancer SNP panel OLA on PCR-amplified cell line DNA; conditions: PCR-amplified DNA from HIL-60 cell line
Description: as §1, §2, §3

[5] = system: spot with the capture oligonucleotide with SEQ ID NO: 5; experiment: Comparison of blocking conditions for preparing arrays (cross-reactivity from cross-contamination); type: binding
Description: Blocking conditions for removing excess capture oligonucleotides from arrays were compared. Plates with printed arrays were prepared as described in Example 2 and blocked and washed as described in Example 4, except for varying the composition of the blocking solution. Specificity of the arrays was then characterized as described in Example 4.

rs1801133 (MTHFR C677T) = experiment: Lung cancer SNP panel OLA on PCR-amplified cell line DNA; conditions: PCR-amplified DNA from HIL-60 cell line
Description: as §1, §2, §3

[6] = system: rs17879961 (CHEK2 c.599T>C); experiment: as above; conditions: PCR-amplified DNA from HIL-60 cell line
Description: as §1, §2, §3

[7] = system: rs1801270 (CDKN1A c.93C>A); experiment: as above; conditions: PCR-amplified DNA from HIL-60 cell line
Description: as §1, §2, §3

rs2273535 (AURKA F31J) = experiment: as above; conditions: PCR-amplified DNA from HIL-60 cell line
Description: as §1, §2, §3

Compound: CHRNA3 rs1051730 (DNA CGGATGTACAGCGAGTATGTG; listed as DNA, chemistry not given here)
- % Mutant (rs1051730 (CHRNA3 D398N)): 0.1%
- % Wild-type (rs1051730 (CHRNA3 D398N)): 99.9%
- Genotype (rs1051730 (CHRNA3 D398N)): Homozygous (WT) (Measured mutation percentages <20% were classified as homozygous wildtype samples)

Compound: ABCC1 rs212090 (DNA AGGCCATCTCCTTAATATTTACCC; listed as DNA, chemistry not given here)
- % Mutant [1]: 48.6%
- % Wild-type [1]: 51.4%
- Genotype [1]: Heterozygous (mutation percentages between 30% and 70% were classified as heterozygous (50% mutation))

Compound: ABCB1 rs3842 (DNA AGCAAGGCAGTCAGTTACAG; listed as DNA, chemistry not given here)
- % Mutant (rs3842 (ABCB1 c.*193A>G)): 52.4%
- % Wild-type (rs3842 (ABCB1 c.*193A>G)): 47.6%
- Genotype (rs3842 (ABCB1 c.*193A>G)): Heterozygous (mutation percentages between 30% and 70% were classified as heterozygous (50% mutation))

Compound: miR-122: synthetic miR-122 miRNA, target sequence in Table 47 (UGGAGUGUGACAAUGGUGUUUG; listed as RNA, chemistry not fully specified; the letters are possibly those of the target site)
- concentration detected (miR-122 [2]): 160 fM
- concentration detected (miR-122 [3]): 500 fM

Compound: LOC123688 rs8034191 (DNA CCCTGATTTCCACAAGTCC; listed as DNA, chemistry not given here)
- % Mutant [4]: 1.0%
- % Wild-type [4]: 99.0%
- Genotype [4]: Homozygous (WT) (Measured mutation percentages <20% were classified as homozygous wildtype samples)

Compound: N[C@@H](CS)C(=O)O [cysteine]
- cross-reactivity ([5]; cysteine added to the Tris/Triton formulation): ≤ 0.01%
- blocking effectiveness ([5]; cysteine concentrations ranging from 5 to 50 to 500 mM, separate experiments): effective at blocking

Compound: MTHFR rs180113 (DNA CTTCACAAAGCGGAAGAATGTG; listed as DNA, chemistry not given here)
- % Mutant (rs1801133 (MTHFR C677T)): 42.8%
- % Wild-type (rs1801133 (MTHFR C677T)): 57.2%
- Genotype (rs1801133 (MTHFR C677T)): Heterozygous (mutation percentages between 30% and 70% were classified as heterozygous (50% mutation))

Compound: CHEK2 rs17879961 (DNA TCCATTGCCACTGTGATCTTC; listed as DNA, chemistry not given here)
- % Mutant [6]: 0.8%
- % Wild-type [6]: 99.2%
- Genotype [6]: Homozygous (WT) (Measured mutation percentages <20% were classified as homozygous wildtype samples)

Compound: CDKN1A rs1801270 (DNA TCGAAGTTCCATCGCTCAC; listed as DNA, chemistry not given here)
- % Mutant [7]: 0.1%
- % Wild-type [7]: 99.9%
- Genotype [7]: Homozygous (WT) (Measured mutation percentages <20% were classified as homozygous wildtype samples)

Compound: AURKA rs2273535 (DNA CTTCCATTCTAGGCTACAGCTC; listed as DNA, chemistry not given here)
- % Mutant (rs2273535 (AURKA F31J)): 0.5%
- % Wild-type (rs2273535 (AURKA F31J)): 99.5%
- Genotype (rs2273535 (AURKA F31J)): Homozygous (WT) (Measured mutation percentages <20% were classified as homozygous wildtype samples)
